Where two headings read alike, the source gives them in different places.
How the values were obtained:
[1] = Uric acid excreting and diuretic actions in rats; type: in vivo, Wistar rats; details: for response vs control in vivo at 300 mg/kg / response vs control in vivo at 1000 mg/kg: Rattus norvegicus, female Wistar rats, urine collected up to 5 h, relative value with control = 100; for response vs control in vivo at 300 mg/kg: 300 mg/kg oral; for response vs control in vivo at 1000 mg/kg: 1000 mg/kg oral; for urine volume: result in words, summary of Table 1
Description: Three female Wistar rats (4-week old) in each group were administered orally with 300 or 1000 mg/kg of a test compound in a volume of 10 ml/kg as suspended in an aqueous solution of 0.5% carboxymethylcellulose sodium or 5% gum arabic; immediately thereafter, the animals were loaded orally with 25 ml/kg of physiological saline and the urine was collected up to 5 h after the administration of the test compound. The collected urine was immediately measured quantitatively and the urinary concentration of uric acid was measured by a urikase method in accordance with the procedure of Kabasakalian et al. [Kabasakalian, P. et al.: Clin Chem., 19, 522-524 (1973)] and the urinary excretion of uric acid was calculated. […]

Acute toxicity test = type: in vivo; details: oral 100 - 1000 mg/kg, female Wistar rats, observed over 24 h
Description: Three female Wistar rats (4-week old) in each group were administered orally with 100 - 1000 mg/kg of a test compound in a volume of 10 ml/kg as suspended in an aqueous solution of 0.5% carboxymethylcellulose sodium or 5% gum arabic and were subsequently observed over 24 h. Compounds 1 - 6 were as identified above.

[2] = Uric acid excreting and diuretic actions in rats; type: in vivo; details: Rattus norvegicus; 30 mg/kg oral, female Wistar rats, urine collected up to 5 h, relative value with control = 100; read-out: Urine Volume (%)
[3] = read-out: Urinary excretion of uric acid (%)

SMILES	response vs control in vivo at 300 mg/kg [1, 3]	response vs control in vivo at 300 mg/kg ([1]; read-out: Urine Volume (%))	response vs control in vivo at 1000 mg/kg [1, 3]	response vs control in vivo at 1000 mg/kg ([1]; read-out: Urine Volume (%))	Acute toxicity (Minimal dose causing death: mg/kg) (Acute toxicity test)	urine volume [1]	response vs control in vivo at 30 mg/kg [2]
O=C1CN(S(=O)(=O)C2CCCCC2)C(=O)N1 [Compound 1, 1-(cyclohexylsulfonyl)hydantoin]	116%	96%	155%	124%	>1000 (no death case at 1000) mg/kg	–	–
O=C1CN(S(=O)(=O)C2CCCCCC2)C(=O)N1 [Compound 2, 1-(cycloheptylsulfonyl)hydantoin]	152%	159%	256%	170%	>1000 (no death case at 1000) mg/kg	–	–
O=C1CN(S(=O)(=O)C2CCCCCCC2)C(=O)N1 [Compound 3, 1-(cyclooctylsulfonyl)hydantoin]	103%	109%	245%	95%	>1000 (no death case at 1000) mg/kg	–	–
Cc1cc(S(=O)(=O)N2CC(=O)NC2=O)c(C)s1 [Compound 4, 1-(2,5-dimethylthien-3-ylsulfonyl)hydantoin]	104%	111%	145%	207%	>1000 (no death case at 1000) mg/kg	–	–
O=C1CN(S(=O)(=O)C2Cc3ccccc3C2)C(=O)N1 [Compound 5, 1-(indan-2-ylsulfonyl)hydantoin]	102%	135%	144%	144%	>1000 (no death case at 1000) mg/kg	–	–
O=C1CN(S(=O)(=O)c2cc(Cl)ccc2Cl)C(=O)N1 [Compound 6, 1-(2,5-dichlorophenylsulfonyl)hydantoin]	96%	151%	151%	223%	>1000 (no death case at 1000) mg/kg	–	–
NS(=O)(=O)c1cc(C(=O)O)c(NCc2ccco2)cc1Cl [Furosemide, furosemide, reference compound]	–	–	–	–	–	an increase in the urine volume was observed	215%
CCCN(CCC)S(=O)(=O)c1ccc(C(=O)O)cc1 [Probenecid, probenecid, reference compound]	78%	60%	167%	20%	–	significantly decreased the urine volume	–

Source: patent EP0788796A1, “URICOSURIC AGENT” (priority 1995, dated 1997)
